The conditions of this data set: Liquid, Closed cell (Static) method.

As usually defined, the vapor or sublimation pressure is the pressure of vapour in equilibrium with the condensed phase.

Numbers after ± are expanded uncertainties.

Turning to `CCCCOCCOC(C)=O` [2-butoxyethyl acetate], the “vapor or sublimation pressure” value reads like this: (463 K) 93.7 ± 0.8 kPa; (463.3 K) 93.6 ± 0.8 kPa; (464.2 K) 93.9 ± 0.8 kPa.

Take `CCOCCOC(C)=O` [2-ethoxyethyl ethanoate]: the “vapor or sublimation pressure” value was 93.3 ± 0.8 kPa (427.8 K), 93.7 ± 0.8 kPa (428.3 K) and 93.3 ± 0.8 kPa (428.6 K).

Turning to `CCCCOCCO` [2-butoxyethan-1-ol], the “vapor or sublimation pressure” value is, setting by setting: (441.3 K) 93.9 ± 0.8 kPa; (441.5 K) 93.6 ± 0.8 kPa; (442.1 K) 94.1 ± 0.8 kPa.

Turning to `CCOCCO` [2-ethoxyethan-1-ol], the “vapor or sublimation pressure” value amounted to 93.3 ± 0.8 kPa (406.2 K), 93.3 ± 0.8 kPa (406.9 K) and 93.6 ± 0.8 kPa (407.8 K).

Source of the values: the NIST ThermoML archive (doi:10.1021/je200565u).
